Strand notation (5' to 3'): a small letter for the sugar, then the base; units joined by * are phosphorothioate-linked, units joined directly phosphodiester-linked; [ ] holds rarer units or linkages, { } end groups; capitals alone tell only the bases. e = 2'-O-(2-methoxyethyl) (MOE); k = constrained ethyl (cEt); [5mC] = 5-methylcytosine; d = 2'-deoxy (DNA)
Test system: Yap1 mRNA
Test: Dose-dependent inhibition of human Yap1 in SNU-449 cells (Example 9, RTS36584)
Assay type: cell-based
Conditions: free uptake; for % UTC (Yap1 mRNA): approximately 48 hours; for IC50: linear regression on a log/linear plot
Method in brief: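 Read-out was Yap1 mRNA (primer-probe RTS36584) normalised to total RNA by RIBOGREEN, given as % of untreated cells, with IC50 fitted by linear regression of log/linear data. Oligonucleotides were dosed by free uptake to SNU-449 cells, 10,000/well, for ~48 h.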

1198352 (kT*kG*kT*dA*dT*dG*dT*d[5mC]*dA*dG*dA*dA*kG*eA*kG*eT; antisense) [compound 1198352]
% UTC (Yap1 mRNA) (31.3 nM): 58 % UTC
% UTC (Yap1 mRNA) (125.0 nM): 29 % UTC
% UTC (Yap1 mRNA) (500.0 nM): 10 % UTC
% UTC (Yap1 mRNA) (2000.00 nM): 3 % UTC
IC50: 40 nM

1198353 (kA*kG*kT*dG*dT*dA*dT*dG*dT*d[5mC]*dA*dG*kA*eA*kG*eA; antisense) [compound 1198353]
% UTC (Yap1 mRNA) (31.3 nM): 60 % UTC
% UTC (Yap1 mRNA) (125.0 nM): 30 % UTC
% UTC (Yap1 mRNA) (500.0 nM): 10 % UTC
% UTC (Yap1 mRNA) (2000.00 nM): 4 % UTC
IC50: 40 nM

1198354 (kA*kA*kG*dT*dG*dT*dA*dT*dG*dT*d[5mC]*dA*kG*eA*kA*eG) [compound 1198354]
% UTC (Yap1 mRNA) (31.3 nM): 66 % UTC
% UTC (Yap1 mRNA) (125.0 nM): 24 % UTC
% UTC (Yap1 mRNA) (500.0 nM): 5 % UTC
% UTC (Yap1 mRNA) (2000.00 nM): 1 % UTC
IC50: 50 nM

1198355 (kA*kA*kA*dG*dT*dG*dT*dA*dT*dG*dT*d[5mC]*kA*eG*kA*eA; antisense) [compound 1198355]
% UTC (Yap1 mRNA) (31.3 nM): 63 % UTC
% UTC (Yap1 mRNA) (125.0 nM): 34 % UTC
% UTC (Yap1 mRNA) (500.0 nM): 10 % UTC
% UTC (Yap1 mRNA) (2000.00 nM): 4 % UTC
IC50: 100 nM

1198356 (kT*kA*kA*dA*dG*dT*dG*dT*dA*dT*dG*dT*k[5mC]*eA*kG*eA; antisense) [compound 1198356]
% UTC (Yap1 mRNA) (31.3 nM): 85 % UTC
% UTC (Yap1 mRNA) (125.0 nM): 30 % UTC
% UTC (Yap1 mRNA) (500.0 nM): 7 % UTC
% UTC (Yap1 mRNA) (2000.00 nM): 1 % UTC
IC50: 100 nM

1198358 (kT*kT*kT*dA*dA*dA*dG*dT*dG*dT*dA*dT*kG*eT*k[5mC]*eA; antisense) [compound 1198358]
% UTC (Yap1 mRNA) (31.3 nM): 68 % UTC
% UTC (Yap1 mRNA) (125.0 nM): 39 % UTC
% UTC (Yap1 mRNA) (500.0 nM): 20 % UTC
% UTC (Yap1 mRNA) (2000.00 nM): 8 % UTC
IC50: 100 nM

1198365 (k[5mC]*kT*kA*dA*dG*dT*dA*dA*dG*dG*dT*dT*kT*e[5mC]*k[5mC]*e[5mC]; antisense) [compound 1198365]
% UTC (Yap1 mRNA) (31.3 nM): 59 % UTC
% UTC (Yap1 mRNA) (125.0 nM): 38 % UTC
% UTC (Yap1 mRNA) (500.0 nM): 15 % UTC
% UTC (Yap1 mRNA) (2000.00 nM): 5 % UTC
IC50: 100 nM

1198371 (kA*dT*dT*dG*dT*d[5mC]*dT*d[5mC]*dA*dT*dG*k[5mC]*e[5mC]*kT*eT*kA; antisense) [compound 1198371]
% UTC (Yap1 mRNA) (31.3 nM): 85 % UTC
% UTC (Yap1 mRNA) (125.0 nM): 66 % UTC
% UTC (Yap1 mRNA) (500.0 nM): 46 % UTC
% UTC (Yap1 mRNA) (2000.00 nM): 21 % UTC
IC50: 300 nM

1198380 (kA*dG*dA*dG*dT*dA*dT*dG*dT*dG*dG*k[5mC]*eA*kA*eT*kA; antisense) [compound 1198380]
% UTC (Yap1 mRNA) (31.3 nM): 72 % UTC
% UTC (Yap1 mRNA) (125.0 nM): 55 % UTC
% UTC (Yap1 mRNA) (500.0 nM): 27 % UTC
% UTC (Yap1 mRNA) (2000.00 nM): 11 % UTC
IC50: 100 nM

1198382 (kT*dT*dA*dG*dA*dG*dT*dA*dT*dG*dT*kG*eG*k[5mC]*eA*kA; antisense) [compound 1198382]
% UTC (Yap1 mRNA) (31.3 nM): 77 % UTC
% UTC (Yap1 mRNA) (125.0 nM): 56 % UTC
% UTC (Yap1 mRNA) (500.0 nM): 36 % UTC
% UTC (Yap1 mRNA) (2000.00 nM): 18 % UTC
IC50: 200 nM

1198384 (kT*dA*dT*dT*dA*dG*dA*dG*dT*dA*dT*kG*eT*kG*eG*k[5mC]; antisense) [compound 1198384]
% UTC (Yap1 mRNA) (31.3 nM): 76 % UTC
% UTC (Yap1 mRNA) (125.0 nM): 50 % UTC
% UTC (Yap1 mRNA) (500.0 nM): 24 % UTC
% UTC (Yap1 mRNA) (2000.00 nM): 17 % UTC
IC50: 100 nM

1198397 (k[5mC]*dA*d[5mC]*dT*dT*dT*dT*dA*d[5mC]*dA*dT*kT*eA*kG*eG*kA; antisense) [compound 1198397]
% UTC (Yap1 mRNA) (31.3 nM): 70 % UTC
% UTC (Yap1 mRNA) (125.0 nM): 53 % UTC
% UTC (Yap1 mRNA) (500.0 nM): 28 % UTC
% UTC (Yap1 mRNA) (2000.00 nM): 14 % UTC
IC50: 100 nM

1198398 (G_{ks}^{m}C_{ds}A_{ds}C_{ds}T_{ds}T_{ds}T_{ds}T_{ds}A_{ds}^{m}C_{ds}A_{ds}T_{ks}T_{es}A_{ks}G_{es}G_{k}; cEt, 2'-MOE, 5-methylcytosine, phosphorothioate modifications, as printed in the source, key not given here) [compound 1198398]
% UTC (Yap1 mRNA) (31.3 nM): 73 % UTC
% UTC (Yap1 mRNA) (125.0 nM): 55 % UTC
% UTC (Yap1 mRNA) (500.0 nM): 33 % UTC
% UTC (Yap1 mRNA) (2000.00 nM): 18 % UTC
IC50: 200 nM

1198406 (kG*d[5mC]*dT*dT*dT*dG*dG*dA*dA*dG*dA*kT*e[5mC]*kT*eG*kA; antisense) [compound 1198406]
% UTC (Yap1 mRNA) (31.3 nM): 70 % UTC
% UTC (Yap1 mRNA) (125.0 nM): 57 % UTC
% UTC (Yap1 mRNA) (500.0 nM): 31 % UTC
% UTC (Yap1 mRNA) (2000.00 nM): 16 % UTC
IC50: 200 nM

1198409 (kA*dG*dT*dG*d[5mC]*dT*dT*dT*dG*dG*dA*kA*eG*kA*eT*k[5mC]; antisense) [compound 1198409]
% UTC (Yap1 mRNA) (31.3 nM): 100 % UTC
% UTC (Yap1 mRNA) (125.0 nM): 68 % UTC
% UTC (Yap1 mRNA) (500.0 nM): 45 % UTC
% UTC (Yap1 mRNA) (2000.00 nM): 27 % UTC
IC50: 400 nM

1198412 (kT*dT*dA*dG*dG*dA*dT*dG*d[5mC]*dA*dT*kG*eG*kT*eT*kT; antisense) [compound 1198412]
% UTC (Yap1 mRNA) (31.3 nM): 73 % UTC
% UTC (Yap1 mRNA) (125.0 nM): 54 % UTC
% UTC (Yap1 mRNA) (500.0 nM): 33 % UTC
% UTC (Yap1 mRNA) (2000.00 nM): 15 % UTC
IC50: 200 nM

1198422 (k[5mC]*dT*dT*dA*dT*dA*dT*dG*dG*dT*dT*kT*eT*kG*eT*kG) [compound 1198422]
% UTC (Yap1 mRNA) (31.3 nM): 88 % UTC
% UTC (Yap1 mRNA) (125.0 nM): 60 % UTC
% UTC (Yap1 mRNA) (500.0 nM): 30 % UTC
% UTC (Yap1 mRNA) (2000.00 nM): 19 % UTC
IC50: 200 nM

1198423 (TCTTATATGGTTTTGT; all C 5-methyl, all phosphorothioate, sugars by position not given here; cEt/MOE mixed gapmer, notation at position 4 garbled) [compound 1198423]
% UTC (Yap1 mRNA) (31.3 nM): 58 % UTC
% UTC (Yap1 mRNA) (125.0 nM): 35 % UTC
% UTC (Yap1 mRNA) (500.0 nM): 15 % UTC
% UTC (Yap1 mRNA) (2000.00 nM): 6 % UTC
IC50: 50 nM

1198424 (k[5mC]*dT*d[5mC]*dT*dT*dA*dT*dA*dT*dG*dG*kT*eT*kT*eT*kG; antisense) [compound 1198424]
% UTC (Yap1 mRNA) (31.3 nM): 64 % UTC
% UTC (Yap1 mRNA) (125.0 nM): 44 % UTC
% UTC (Yap1 mRNA) (500.0 nM): 24 % UTC
% UTC (Yap1 mRNA) (2000.00 nM): 9 % UTC
IC50: 100 nM

1198438 (kT*dG*dT*dA*dT*dG*dT*d[5mC]*dA*dG*dA*kA*eG*kA*eG*kT) [compound 1198438]
% UTC (Yap1 mRNA) (31.3 nM): 62 % UTC
% UTC (Yap1 mRNA) (125.0 nM): 28 % UTC
% UTC (Yap1 mRNA) (500.0 nM): 7 % UTC
% UTC (Yap1 mRNA) (2000.00 nM): 2 % UTC
IC50: 40 nM

1198457 (kA*kT*dT*dG*dT*d[5mC]*dT*d[5mC]*dA*dT*dG*e[5mC]*k[5mC]*eT*kT*eA; antisense) [compound 1198457]
% UTC (Yap1 mRNA) (31.3 nM): 82 % UTC
% UTC (Yap1 mRNA) (125.0 nM): 56 % UTC
% UTC (Yap1 mRNA) (500.0 nM): 31 % UTC
% UTC (Yap1 mRNA) (2000.00 nM): 12 % UTC
IC50: 200 nM

1198460 (kG*kA*dA*dA*dT*dT*dG*dT*d[5mC]*dT*d[5mC]*eA*kT*eG*k[5mC]*e[5mC]; antisense) [compound 1198460]
% UTC (Yap1 mRNA) (31.3 nM): 60 % UTC
% UTC (Yap1 mRNA) (125.0 nM): 49 % UTC
% UTC (Yap1 mRNA) (500.0 nM): 28 % UTC
% UTC (Yap1 mRNA) (2000.00 nM): 11 % UTC
IC50: 100 nM

1198466 (kA*kG*dA*dG*dT*dA*dT*dG*dT*dG*dG*e[5mC]*kA*eA*kT*eA; antisense) [compound 1198466]
% UTC (Yap1 mRNA) (31.3 nM): 68 % UTC
% UTC (Yap1 mRNA) (125.0 nM): 44 % UTC
% UTC (Yap1 mRNA) (500.0 nM): 18 % UTC
% UTC (Yap1 mRNA) (2000.00 nM): 6 % UTC
IC50: 100 nM

1198470 (kT*kA*dT*dT*dA*dG*dA*dG*dT*dA*dT*eG*kT*eG*kG*e[5mC]; antisense) [compound 1198470]
% UTC (Yap1 mRNA) (31.3 nM): 73 % UTC
% UTC (Yap1 mRNA) (125.0 nM): 41 % UTC
% UTC (Yap1 mRNA) (500.0 nM): 18 % UTC
% UTC (Yap1 mRNA) (2000.00 nM): 9 % UTC
IC50: 100 nM

1198484 (kG*k[5mC]*dA*d[5mC]*dT*dT*dT*dT*dA*d[5mC]*dA*eT*kT*eA*kG*eG) [compound 1198484]
% UTC (Yap1 mRNA) (31.3 nM): 80 % UTC
% UTC (Yap1 mRNA) (125.0 nM): 45 % UTC
% UTC (Yap1 mRNA) (500.0 nM): 24 % UTC
% UTC (Yap1 mRNA) (2000.00 nM): 12 % UTC
IC50: 100 nM
